The values below come from patent publication US10421774B2 (priority 2016, dated 2019).

Common to all, as to experiment: microbe, parasite or virus in culture
Holding throughout (assay type): cell-based, HIV-1

One assay deals with gag V370A/ΔT371 virus. The following applies: Human immunodeficiency virus 1, MT2, read-out: V370A/ΔT371 EC50. As for the experimental part:
(§1) Cells. MT-2 cells and 293T cells were obtained from the NIH AIDS Research and Reference Reagent Program. Cell lines were sub-cultured twice a week in either RPMI 1640 (MT-2) or DMEM (293T, HeLa) media supplemented with 10% heat inactivated fetal bovine serum (FBS), 100 units/mL of penicillin G and 100 μg/mL of streptomycin. The DMEM medium was additionally supplemented with 10 mM HEPES buffer, pH 7.55, 2 mM L-glutamine and 0.25 μg/mL of amphotericin B.
(§2) Viruses. NLRepRluc virus contains the Renilla luciferase marker in place of the viral nef gene. The proviral plasmid pNLRepRluc was constructed at Bristol-Myers Squibb, starting from a proviral NL4-3 clone (B subtype) that was obtained from the NIH AIDS Research and Reference Reagent Program. The parental recombinant wild type (WT) virus (NLRepRlucP373S) was derived from NLRepRluc and contains the additional substitution of P373 for serine in Gag (within the SP1 spacer), the most common 373 variation in subtype B. Other recombinant viruses (A364V, V370A/ΔT371 and the “T3325 triple” (T332S/V362I+HIV-1 protease R41G)) were generated by site-directed mutagenesis of plasmid pNLRepRlucP373S to introduce those amino acid substitutions in Gag and protease. Recombinant virus DNA was then used to generate virus stocks by transfection of 293T cells (Lipofectamine PLUS kit, Invitrogen). Titers of virus stocks were determined using a luciferase assay (Dual-Luciferase® Reporter Assay System, Promega, Milwaukee, Wis., USA) endpoint.
(§3) Multiple cycle drug susceptibility assay. Pellets of MT-2 cells were infected with NLRepRlucP373S Gag site-directed viruses, where initial inocula of the reporter strains were normalized using equivalent endpoint luciferase activity signals. Such cell-virus mixtures were resuspended in medium, incubated for 1-hour at 37° C./CO2, and added to compound containing 96-well plates at a final cell density of 10,000 cells per well. The test compounds were 3-fold serially diluted in 100% DMSO, and assayed at a final DMSO concentration of 1%. After 4-5 day incubation at 37° C./CO2, virus yields were determined by Renilla luciferase activity (Dual-Luciferase® Reporter Assay System, Promega). The endpoint luminescence was detected on a Wallac Trilux (PerkinElmer).
(§4) HIV-1 NL4-3 expressing Renilla luciferase gene was converted to the gag V370A/ΔT371 virus by site directed mutagenesis. A364V is a site directed mutant.
(§5) All three recombinant viruses were used as described above in the HIV cell culture assay for the NL4-3 virus.

The test system of assay [1] is A364V site directed mutant virus. The following applies: Human immunodeficiency virus 1, MT2, read-out: A364V EC50. The method, then:
as §1, §2, §3, §4, §5

Assay [2] deals with T332S/V362I/Pr R41G virus. The following applies: Human immunodeficiency virus 1, MT2, read-out: T332S/V362I/pr41G EC50. The method, then:
as §1, §2, §3
T332sN362I/Pr R41G (N14.3, B Clade) virus′ was obtained as follows: Selection for resistance of HIV-1 strain […] virus with the HIV maturation inhibitor (MI) compound
At passage 8 virus was harvested and sequenced.
as §5

In assay [3] the test system is NLRepRlucP373S recombinant wild type (WT) virus. The following applies: Human immunodeficiency virus 1, MT2, read-out: WT EC50. As for the experimental part:
as §1, §2, §3
The 50% inhibitory concentrations (EC50S) were calculated by using the exponential form of the median effect equation where Percent Inhibition=1/[1+(EC50/drug conc.^m], where m is a parameter that reflects the slope of the concentration-response curve. Background was taken as the residual signal observed upon inhibition at the highest concentration of a control protease inhibitor, NFV (3 μM).
The 90% inhibitory concentrations (EC90S) were calculated by using the exponential form of the median effect equation where ECF=[(F/(100−F)]^1/H·EC50, where H is a parameter that reflects the slope of the concentration-response curve. Background was taken as the residual signal observed upon inhibition at the highest concentration of a control protease inhibitor, NFV (3 μM).

Molecules are shown by their SMILES.

`C=C(C)[C@@H]1CC[C@]2(NCCN3CCS(=O)(=O)CC3)CC[C@]3(C)[C@H](CC[C@@H]4[C@@]5(C)CC=C(C6=CCC(COc7cc(C#N)ccn7)(C(=O)O)CC6)C(C)(C)[C@@H]5CC[C@]43C)[C@@H]12` (stereo partly drawn) [Example 37, 1-(((4-cyanopyridin-2-yl)oxy)methyl)-4-((1R,3aS,5aR,5bR,7aR,11aS,11bR,13aR,13bR)-3a-((2-(1,1-dioxidothiomorpholino)ethyl)amino)-5a,5b,8,8,11a-pentamethyl-1-(prop-1-en-2-yl)-2,3,3a,4,5,5a,5b,6,7,7a,8,11,11a,11b,12,13,13a,13b-octadecahydro-1H-cyclopenta[a]chrysen-9-yl)cyclohex-3-ene-1-carboxylic acid]: the EC50 in the assay with gag V370A/ΔT371 virus was over 50 nM; in assay [1], over 50 nM; in assay [2], over 50 nM; in assay [3], under 50 nM.
In the case of `C=C(C)[C@@H]1CC[C@]2(NCCN3CCS(=O)(=O)CC3)CC[C@]3(C)[C@H](CC[C@@H]4[C@@]5(C)CC=C(C6=CCC(COc7cc(C)sn7)(C(=O)O)CC6)C(C)(C)[C@@H]5CC[C@]43C)[C@@H]12` (stereo partly shown) [Example 12], the EC50 (with gag V370A/ΔT371 virus; in assay [1]; in assay [2]; in assay [3]) was under 50 nM each time.
Regarding `C=C(C)[C@@H]1CC[C@]2(NC[C@@H](O)CO)CC[C@]3(C)[C@H](CC[C@@H]4[C@@]5(C)CC=C(C6=CC[C@](COc7ncccc7C(N)=O)(C(=O)O)CC6)C(C)(C)[C@@H]5CC[C@]43C)[C@@H]12` [Example A8, (R)-1-(((3-carbamoylpyridin-2-yl)oxy)methyl)-4-((1R,3aS,5aR,5bR,7aR,11aS,11bR,13aR,13bR)-3a-(((R)-2,3-dihydroxypropyl)amino)-5a,5b,8,8,11a-pentamethyl-1-(prop-1-en-2-yl)-2,3,3a,4,5,5a,5b,6,7,7a,8,11,11a,11b,12,13,13a,13b-octadecahydro-1H-cyclopenta[a]chrysen-9-yl)cyclohex-3-enecarboxylic acid], the EC50 in the assay with gag V370A/ΔT371 virus was 23 nM; in assay [1], 176 nM; in assay [2], 23 nM; in assay [3], 4 nM.
On to `C=C(C)[C@@H]1CC[C@]2(NCCN3CCS(=O)(=O)CC3)CC[C@]3(C)[C@H](CC[C@@H]4[C@@]5(C)CC=C(C6=CCC(CCOc7ncccc7C#N)(C(=O)O)CC6)C(C)(C)[C@@H]5CC[C@]43C)[C@@H]12` (stereo partly drawn) [Example A22, 1-(2-((3-cyanopyridin-2-yl)oxy)ethyl)-4-((1R,3aS,5aR,5bR,7aR,11aS,11bR,13aR,13bR)-3a-((2-(1,1-dioxidothiomorpholino)ethyl)amino)-5a,5b,8,8,11a-pentamethyl-1-(prop-1-en-2-yl)-2,3,3a,4,5,5a,5b,6,7,7a,8,11,11a,11b,12,13,13a,13b-octadecahydro-1H-cyclopenta[a]chrysen-9-yl)cyclohex-3-ene-1-carboxylic acid], for which the EC50 with gag V370A/ΔT371 virus stood at 13 nM; in assay [1], 27 nM; in assay [2] it was 13 nM; in assay [3], 4 nM.
`C=C(C)[C@@H]1CC[C@]2(NCCN3CCS(=O)(=O)CC3)CC[C@]3(C)[C@H](CC[C@@H]4[C@@]5(C)CC=C(C6=CCC(COc7ccncc7)(C(=O)O)CC6)C(C)(C)[C@@H]5CC[C@]43C)[C@@H]12` (stereo partly drawn) [Example 9, 4-((1R,3aS,5aR,5bR,7aR,11aS,11bR,13aR,13bR)-3a-((2-(1,1-dioxidothiomorpholino)ethyl)amino)-5a,5b,8,8,11a-pentamethyl-1-(prop-1-en-2-yl)-2,3,3a,4,5,5a,5b,6,7,7a,8,11,11a,11b,12,13,13a,13b-octadecahydro-1H-cyclopenta[a]chrysen-9-yl)-1-((pyridin-4-yloxy)methyl)cyclohex-3-ene-1-carboxylic acid]: the EC50 was 35 nM in assay [1], 14 nM in assay [2] and 2 nM in assay [3].
In the same order, the values of `C=C(C)[C@@H]1CC[C@]2(NCCN3CCS(=O)(=O)CC3)CC[C@]3(C)[C@H](CC[C@@H]4[C@@]5(C)CC=C(C6=CCC(COc7cc(-c8ccccc8)nn7C)(C(=O)O)CC6)C(C)(C)[C@@H]5CC[C@]43C)[C@@H]12` (stereo partly drawn) [Example 2, 4-((1R,3aS,5aR,5bR,7aR,11aS,11bR,13aR,13bR)-3a-((2-(1,1-dioxidothiomorpholino)ethyl)amino)-5a,5b,8,8,11a-pentamethyl-1-(prop-1-en-2-yl)-2,3,3a,4,5,5a,5b,6,7,7a,8,11,11a,11b,12,13,13a,13b-octadecahydro-1H-cyclopenta[a]chrysen-9-yl)-1-(((1-methyl-3-phenyl-1H-pyrazol-5-yl)oxy)methyl)cyclohex-3-ene-1-carboxylic acid] are 1940 nM, 3000 nM and 3000 nM.
Turning to `C=C(C)[C@@H]1CC[C@]2(NCCN3CCC(S(C)(=O)=O)CC3)CC[C@]3(C)[C@H](CC[C@@H]4[C@@]5(C)CC=C(C6=CCC(COc7cccnc7)(C(=O)O)CC6)C(C)(C)[C@@H]5CC[C@]43C)[C@@H]12` (stereo partly drawn) [Example 11, 4-((1R,3aS,5aR,5bR,7aR,11aS,11bR,13aR,13bR)-5a,5b,8,8,11a-pentamethyl-3a-((2-(4-(methylsulfonyl)piperidin-1-yl)ethyl)amino)-1-(prop-1-en-2-yl)-2,3,3a,4,5,5a,5b,6,7,7a,8,11,11a,11b,12,13,13a,13b-octadecahydro-1H-cyclopenta[a]chrysen-9-yl)-1-((pyridin-3-yloxy)methyl)cyclohex-3-enecarboxylic acid], the EC50 in assay [1] worked out at 18 nM; in assay [2], 8 nM; in assay [3] it was 2 nM.
Regarding `C=C(C)[C@@H]1CC[C@]2(NCCN3CCS(=O)(=O)CC3)CC[C@]3(C)[C@H](CC[C@@H]4[C@@]5(C)CC=C(C6=CCC(COc7cc(C(F)(F)F)n(C)n7)(C(=O)O)CC6)C(C)(C)[C@@H]5CC[C@]43C)[C@@H]12` (stereo partly shown) [Example 3], the EC50 is 2220 nM in assay [1], 2170 nM in assay [2] and 9 nM in assay [3].
Consider `C=C(C)[C@@H]1CC[C@]2(NCCN3CCS(=O)(=O)CC3)CC[C@]3(C)[C@H](CC[C@@H]4[C@@]5(C)CC=C(C6=CCC(COc7cccnc7)(C(=O)O)CC6)C(C)(C)[C@@H]5CC[C@]43C)[C@@H]12` (stereo partly drawn) [Example 10, 4-((1R,3aS,5aR,5bR,7aR,11aS,11bR,13aR,13bR)-3a-((2-(1,1-dioxidothiomorpholino)ethyl)amino)-5a,5b,8,8,11a-pentamethyl-1-(prop-1-en-2-yl)-2,3,3a,4,5,5a,5b,6,7,7a,8,11,11a,11b,12,13,13a,13b-octadecahydro-1H-cyclopenta[a]chrysen-9-yl)-1-((pyridin-3-yloxy)methyl)cyclohex-3-enecarboxylic acid], for which the EC50 amounted to 27 nM in assay [1], 6 nM in assay [2] and 2 nM in assay [3].
